Laboratory results: US20150353495A1 (PORTOLA PHARMACEUTICALS, INC., priority 2010, published 2015)

Tests used:
JAK1 = molecular target: T1, JAK1 (Homo sapiens, UniProt P23458); assay: Z'-LYTE kinase assay JAK1; assay type: biochemical
T1 construct: 5 μl of catalytic domain recombinant Kinase enzyme+Tyr peptide substrate (Invitrogen, CA); purchased Invitrogen
In short: (§1)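 Read-out is FRET fluorescence between coumarin and fluorescein on a Tyr6 peptide, lost when the development protease cleaves unphosphorylated substrate. Kinase reaction used recombinant catalytic domain with ATP, 1 h at room temperature, 1% DMSO.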

JAK2 = molecular target: T2, JAK2 (Homo sapiens, UniProt O60674); assay: Z'-LYTE kinase assay JAK2; assay type: biochemical
T2 construct: 5 μl of catalytic domain recombinant Kinase enzyme+Tyr peptide substrate (Invitrogen, CA); purchased Invitrogen
T2 sequence (O60674 849-1124 limits assumed): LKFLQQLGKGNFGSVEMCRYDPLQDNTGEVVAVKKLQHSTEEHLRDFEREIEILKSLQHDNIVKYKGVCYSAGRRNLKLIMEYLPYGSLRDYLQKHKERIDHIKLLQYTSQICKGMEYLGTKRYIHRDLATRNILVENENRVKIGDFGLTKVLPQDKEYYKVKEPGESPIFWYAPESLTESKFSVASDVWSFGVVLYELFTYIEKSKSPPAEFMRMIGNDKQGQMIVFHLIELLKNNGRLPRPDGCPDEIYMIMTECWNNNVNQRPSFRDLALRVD
In short: as §1

TYK2 = molecular target: T3, TYK2 (Homo sapiens, UniProt P29597); assay: Z'-LYTE kinase assay TYK2; assay type: biochemical
T3 construct: 5 μl of catalytic domain recombinant Kinase enzyme+Tyr peptide substrate (Invitrogen, CA); purchased Invitrogen
T3 sequence (P29597 897-1176 limits assumed): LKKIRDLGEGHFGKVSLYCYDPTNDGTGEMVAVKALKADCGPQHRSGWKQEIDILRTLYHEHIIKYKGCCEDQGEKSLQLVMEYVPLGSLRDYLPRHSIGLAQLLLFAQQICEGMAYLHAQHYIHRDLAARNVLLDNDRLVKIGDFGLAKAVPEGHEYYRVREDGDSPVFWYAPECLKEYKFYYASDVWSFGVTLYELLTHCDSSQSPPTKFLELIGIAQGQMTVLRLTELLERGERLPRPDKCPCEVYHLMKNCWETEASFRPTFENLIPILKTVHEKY
Experimental: JAK and TYK2 tyrosine phosphorylation activity is measured using the Z′-LYTE™ Technology developed by Invitrogen Corporation (Carlsbad, Calif.). For JAK1, JAK2 and JAK3 the Z′-LYTE™ Kinase Assay Kit-Tyr6 Peptide (part number PV4122) was used. For TYK2 the Z′-LYTE™ Kinase Assay Kit-Tyr6 Peptide (part number PV3192) was used. The Z′-LYTE™ biochemical assay employs a fluorescence resonance energy transfer (FRET) coupled-enzyme format and is based on the differential sensitivity of phosphorylated and non-phosphorylated peptides to proteolitic cleavage. The assay uses a synthetic peptide substrate that is labelled with a donor fluorophore (coumarin) and an acceptor fluorophore (fluorescein) that make up a FRET pair. In the primary reaction (the Kinase Reaction), the kinase transfers the γ-phosphate of ATP to a single tyrosine residue on the substrate, while the presence of a kinase inhibitor in the primary reaction suppresses phosphorylation. In the secondary reaction (the Development Reaction), a site-specific protease (the Development Reagent) is added. The development buffer quenches the Kinase Reaction, while the protease recognizes and cleaves non-phosphorylated Z′-LYTE™ peptide substrate. Cleavage disrupts FRET between the donor and acceptor fluorophores on the non-phosphoryleted substrate, while uncleaved, phosphorylated substrate maintains FRET.
To test the ability of candidate molecules to inhibit JAK tyrosine phosphorylation activity, molecules are reconstituted in 100% DMSO and serially diluted 1:10 in polypropylene v-bottom microtiter plates. The candidate molecules are then diluted 1:25 into kinase buffer and 2.5 μl transferred into duplicate wells of a 384 well low volume black microtiter assay plate (Corning, USA). The final DMSO concentration in the assay is 1%. The kinase reaction contains 2.5 μl of a candidate molecule, 5 μl of catalytic domain recombinant Kinase enzyme+Tyr peptide substrate (Invitrogen, CA) and 2.5 μl ATP (Invitrogen, CA). The kinase reaction is allowed to procede for 1 hour at room temperature. The protease reaction is initiated by the addition of 5 μl Development Reagent (Invitrogen, CA). After 1 hour incubation at room temperature the fluorescence is measured using a FlexStation plate reader (Molecular Devices, Sunnyvale, Calif.). The reader settings used are as follows: Fluorescence mode, endpoint, top read, excitation 400 nm, emission 445 nm and 520 nm, Auto Cutoff 435 nm and 515 nm, PMT sensitivity high, 6 reads per well Inhibition of JAK kinase activity is calculated as the percent phosphorylation of substrate in the presence of inhibitor compared to the percent phosphorylation of substrate in the absence of inhibitor. IC50's were derived using Xlfit 4.3 (IDBS, UK), 4 parameter logistic model 205: Y=(A+4B-A)/(1+((C/x)AD)))).

JAK3 = molecular target: T4, JAK3 (Homo sapiens, UniProt P52333); assay: Z'-LYTE kinase assay JAK3; assay type: biochemical
T4 construct: 5 μl of catalytic domain recombinant Kinase enzyme+Tyr peptide substrate (Invitrogen, CA); purchased Invitrogen
T4 sequence (P52333 822-1111 limits assumed): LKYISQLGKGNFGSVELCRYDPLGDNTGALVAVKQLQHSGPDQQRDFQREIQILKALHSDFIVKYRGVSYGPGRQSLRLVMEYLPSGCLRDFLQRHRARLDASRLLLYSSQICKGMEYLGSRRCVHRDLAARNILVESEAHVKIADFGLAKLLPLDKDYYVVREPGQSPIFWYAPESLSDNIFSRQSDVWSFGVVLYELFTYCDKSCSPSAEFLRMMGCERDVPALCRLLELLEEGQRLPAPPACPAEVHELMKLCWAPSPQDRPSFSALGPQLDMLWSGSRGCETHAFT
In short: as §1

[1] = system: JAK1/3 signaling to STAT6 in Ramos B cells; assay: IL4 stimulation of JAK1/3 signaling to STAT6 in Ramos B cells (pSTAT6 Y641, FACS); assay type: cell-based; conditions: Homo sapiens; for inhibition at 1 µM: 1.0 uM compound, read-out: IL-4/STAT6 in Ramos Percent Inhibition at 1.0 uM; for inhibition at 0.2 µM: 0.2 uM compound, read-out: IL-4/STAT6 in Ramos Percent Inhibition at 0.2 uM
Experimental: IL4 stimulation of JAK1/3 signaling to STATE in Ramos B cells:
As an alternative strategy to measure effect of JAK3 inhibitors on JAK1/3 dependent cytokine signaling pathways, IL4 stimulation of the Ramos Burkett's B cell line is used. IL4 engages a receptor consisting of the IL4 receptor alpha chain and the common gamma chain. […] Ramos B cells are suspended in tissue culture media containing 10% fetal calf serum at 10×10̂6 cells/ml. 100 μl aliquots are pre-treated for 1 hour with various concentrations of compound, and then stimulated for 15 minutes with 15 ng IL4. The signaling reaction is terminated by fixing in 2% paraformaldehyde for 10 minutes at room temperature. Fixed cells are then washed and permeablized by suspension in 100% methanol at −80° C. Following overnight incubation at 4° C., cells are washed and resuspended in PBS containing 0.5% bovine serum albumin containing pSTAT6 Y641-PE conjugated antibody. After 1 hour incubation, cells are washed and the extent of STAT6 phosphorlyation in Ramos cells is measured by FACS analysis.

T1 sequence (P23458 875-1153 limits assumed): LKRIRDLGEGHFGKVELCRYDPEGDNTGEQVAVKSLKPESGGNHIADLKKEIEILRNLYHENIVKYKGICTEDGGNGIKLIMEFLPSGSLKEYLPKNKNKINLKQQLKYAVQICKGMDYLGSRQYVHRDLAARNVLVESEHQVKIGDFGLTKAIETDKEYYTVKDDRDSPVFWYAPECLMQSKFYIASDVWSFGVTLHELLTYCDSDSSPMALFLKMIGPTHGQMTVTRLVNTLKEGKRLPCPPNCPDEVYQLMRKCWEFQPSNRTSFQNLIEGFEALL

Row | Structure (SMILES) | IC50 (JAK1) | IC50 (JAK2) | IC50 (TYK2) | IC50 (JAK3) | inhibition at 1 µM [1] | inhibition at 0.2 µM [1]
1 | NC(=O)c1cnc(Nc2ccccc2)cc1NCc1ccccc1 [Example 9, 4-(benzylamino)-6-(phenylamino)nicotinamide] | > 1000 nM | > 1000 nM | > 1000 nM |  |  | 
2 | NC(=O)c1cnc(Nc2ccc(Cl)cc2)cc1NCc1ccccc1 [Example 13, 4-(benzylamino)-6-(4-chlorophenylamino)nicotinamide] | > 1000 nM | > 1000 nM | > 1000 nM | 100 to 1000 nM |  | 
3 | Cc1cccc(Nc2cc(Nc3ccc(OCCN4CCCC4)cc3)ncc2C(N)=O)c1 [Example 14, 4-(3-toluidino)-6-(4-(2-(pyrrolidin-1-yl)ethoxy)phenylamino)nicotinamide] | > 1000 nM | 100 to 1000 nM | 100 to 1000 nM | 100 to 1000 nM |  | 
4 | COc1ccc(Nc2cc(Nc3ccc(N4CCOCC4)cc3)c(C(N)=O)cn2)cc1 [Example 17, 6-(4-methoxyphenylamino)-4-(4-morpholinophenylamino)nicotinamide] | > 1000 nM | > 1000 nM | > 1000 nM | 100 to 1000 nM |  | 
5 | CC(=O)Nc1cccc(Nc2nc(NC3CCCC3)c(C(N)=O)cc2F)c1 [Example 18, 6-(3-acetamidophenylamino)-2-(cyclopentylamino)-5-fluoronicotinamide] | > 1000 nM | > 1000 nM | 100 to 1000 nM | > 1000 nM |  | 
6 | CC(=O)Nc1cccc(Nc2nc(NCc3ccccc3)c(C(N)=O)cc2F)c1 [Example 19, 6-(3-acetamidophenylamino)-2-(benzylamino)-5-fluoronicotinamide] | > 1000 nM | > 1000 nM | > 1000 nM | > 1000 nM |  | 
7 | NC(=O)c1cnc(Nc2cccc(N3CCCCC3)c2)cc1NCc1cccc(F)c1 [Example 68, 4-(3-fluorobenzylamino)-6-(3-(piperidin-1-yl)phenylamino)nicotinamide] | > 1000 nM | 100 to 1000 nM |  | 10 to 100 nM | 7% | 
8 | NC(=O)c1cnc(Nc2cccc(N3CCCCC3)c2)cc1N[C@H](CO)c1ccccc1 [Example 76, (S)-4-(2-hydroxy-1-phenylethylamino)-6-(3-(piperidin-1-yl)phenylamino)nicotinamide] | > 1000 nM | > 1000 nM |  | 10 to 100 nM | 20% | 8%
9 | COc1ccc(Nc2cc(NCc3c(F)cccc3F)c(C(N)=O)cn2)cc1 [Example 82, 4-(2,6-difluorobenzylamino)-6-(4-methoxyphenylamino)nicotinamide] | 100 to 1000 nM | 100 to 1000 nM |  | 10 to 100 nM | 34% | 7%
10 | COc1ccc(Nc2cc(NCc3cc(F)ccc3F)c(C(N)=O)cn2)cc1 [Example 83, 4-(2,5-difluorobenzylamino)-6-(4-methoxyphenylamino)nicotinamide] | 100 to 1000 nM | 100 to 1000 nM |  | 10 to 100 nM | 23% | 10%
11 | NC(=O)c1cnc(Nc2ccc3c(c2)NC(=O)CO3)cc1NCc1ccccc1 [Example 84, 4-(benzylamino)-6-(3-oxo-3,4-dihydro-2H-benzo[b][1,4]oxazin-6-ylamino)nicotinamide] | > 1000 nM | 100 to 1000 nM |  | 10 to 100 nM | 8% | 3%
12 | COc1ccc(Nc2cc(NCc3cccc(F)c3)c(C(N)=O)cn2)cc1 [Example 91, 4-(3-fluorobenzylamino)-6-(4-methoxyphenylamino)nicotinamide] | > 1000 nM | 100 to 1000 nM |  | 10 to 100 nM | 16% | 6%
13 | NC(=O)c1cnc(Nc2ccc(C(=O)N3CCC3)cc2)cc1NCc1cc(F)ccc1F [Example 93, 6-(4-(azetidine-1-carbonyl)phenylamino)-4-(2,5-difluorobenzylamino)nicotinamide] | 10 to 100 nM | 10 to 100 nM |  | 1 to 10 nM | 76% | 43%
14 | CC(C)N1CCC(c2ccc(Nc3cc(NCc4ccccc4F)c(C(N)=O)cn3)cc2)CC1 [Example 108, 4-(2-fluorobenzylamino)-6-(4-(1-isopropylpiperidin-4-yl)phenylamino)nicotinamide] | 100 to 1000 nM | 10 to 100 nM |  | 1 to 10 nM | 37% | 14%
15 | NC(=O)c1cnc(Nc2cccc(C3CCN(C4CCCC4)CC3)c2)cc1NCc1ccccc1F [Example 110, 6-(3-(1-cyclopentylpiperidin-4-yl)phenylamino)-4-(2-fluorobenzylamino)nicotinamide] | 100 to 1000 nM | 10 to 100 nM |  | 1 to 10 nM | 68% | 24%
16 | CS(=O)(=O)N1CCC(c2ccc(Nc3cc(NCc4ccccc4F)c(C(N)=O)cn3)cc2)CC1 [Example 111, 4-(2-fluorobenzylamino)-6-(4-(1-(methylsulfonyl)piperidin-4-yl)phenylamino)nicotinamide] | > 1000 nM | > 1000 nM |  | 10 to 100 nM | 46% | 22%
17 | CCS(=O)(=O)N1CCC(c2ccc(Nc3cc(NCc4ccccc4F)c(C(N)=O)cn3)cc2)CC1 [Example 112, 6-(4-(1-(ethylsulfonyl)piperidin-4-yl)phenylamino)-4-(2-fluorobenzylamino)nicotinamide] | > 1000 nM | > 1000 nM |  | 10 to 100 nM | 42% | 8%
18 | CN(C)C(=O)N1CCC(c2ccc(Nc3cc(NCc4ccccc4F)c(C(N)=O)cn3)cc2)CC1 [Example 114, 6-(4-(1-(dimethylcarbamoyl)piperidin-4-yl)phenylamino)-4-(2-fluorobenzylamino)nicotinamide] | > 1000 nM | 100 to 1000 nM |  | 10 to 100 nM | 51% | 14%
19 | NC(=O)c1cnc(Nc2cccc(OCCN3CCOCC3)c2)cc1NC(CO)c1ccccc1 (stereo not shown) [Example 230] |  |  |  |  | 36% | 21%
20 | CC(=O)N1CCN(c2ccc(Nc3cc(NC(CO)c4ccccc4)c(C(N)=O)cn3)cc2)CC1 (stereo not shown) [Example 231] |  |  |  |  | 16% | 13%
21 | NC(=O)c1cnc(Nc2cccc(NC(=O)N3CCOCC3)c2)cc1NCc1cccnc1 [Example 232] |  |  |  |  | 5% | 4%
